Laboratory results from publication PMC11538350, “Synthetic studies on the tetrasubstituted D-ring of cystobactamids lead to potent terephthalic acid antibiotics” (Communications Chemistry, 2024).

test system: ESKAPE strains; test: MIC-assays on a panel of representative ESKAPE strains, summary in words; assay type: cell-based; details: summary of the MIC tables
Protocol: (§1) All cystobactamids were evaluated in MIC-assays on a panel of representative ESKAPE strains with focus on A. baumannii (Tables 1 and 2). Compared to our previous work[10],[17],[18], we specifically included more challenging test strains with known resistances against gyrase inhibitors.
(§2) 2.1 Materials and Methods
(§3) Strains were cultivated according to standard procedures. Bacterial cryo-cultures were
(§4) resuspended into fresh MHBII (cation adjusted) medium. The resuspension
(§5) assay plate (Corning, #3788).
(§6) in parallel as a positive control. […]

| Structure (SMILES) | antibacterial activity on the pathogen panel, in words |
| --- | --- |
| C#CC[C@H](NC(=O)c1ccc(NC(=O)c2ccc(C#N)cc2)cc1)C(=O)Nc1ccc(C(=O)Nc2ccc(-c3ccc(C(=O)O)cc3)c(O)c2OC(C)C)cc1 [Cmpd. 44] | inactive |

test system: K. pneum. KP10581; test: MIC assay; assay type: cell-based; details: Klebsiella pneumoniae; read-out: MIC K. pneum. KP10581
Protocol: as §1, §2, §3, §4, §5, §6

| Structure (SMILES) | MIC [mg/L] |
| --- | --- |
| C#CC[C@H](NC(=O)c1ccc(NC(=O)c2ccc(C#N)cc2)cc1)C(=O)Nc1ccc(C(=O)Nc2ccc(-c3ccc(C(=O)O)cc3)c(O)c2OC(C)C)cc1 [Cmpd. 44] | > 64 |

test system: A. baum. DSM-30008; test: MIC assay; assay type: cell-based; details: Acinetobacter baumannii, DSM30008; reference strain; read-out: MIC A. baum. DSM-30008
Protocol: as §1, §2, §3, §4, §5, §6

| Structure (SMILES) | MIC [mg/L] |
| --- | --- |
| C#CC[C@H](NC(=O)c1ccc(NC(=O)c2ccc(C#N)cc2)cc1)C(=O)Nc1ccc(C(=O)Nc2ccc(-c3ccc(C(=O)O)cc3)c(O)c2OC(C)C)cc1 [Cmpd. 44] | > 64 |

test system: S. aur. ATCC-29213; test: MIC assay; assay type: cell-based; details: Staphylococcus aureus, ATCC29213; reference strain; read-out: MIC S. aur. ATCC-29213
Protocol: as §1, §2, §3, §4, §5, §6

| Structure (SMILES) | MIC [mg/L] |
| --- | --- |
| C#CC[C@H](NC(=O)c1ccc(NC(=O)c2ccc(C#N)cc2)cc1)C(=O)Nc1ccc(C(=O)Nc2ccc(-c3ccc(C(=O)O)cc3)c(O)c2OC(C)C)cc1 [Cmpd. 44] | > 64 |

test system: S. pneum. DSM-11865 (PRSP); test: MIC assay; assay type: cell-based; details: Streptococcus pneumoniae; read-out: MIC S. pneum. DSM-11865 (PRSP)
Protocol: as §1, §2, §3, §4, §5, §6

| Structure (SMILES) | MIC [mg/L] |
| --- | --- |
| C#CC[C@H](NC(=O)c1ccc(NC(=O)c2ccc(C#N)cc2)cc1)C(=O)Nc1ccc(C(=O)Nc2ccc(-c3ccc(C(=O)O)cc3)c(O)c2OC(C)C)cc1 [Cmpd. 44] | > 64 |

test system: E. cloacae ATCC BAA-2468; test: MIC assay; assay type: cell-based; details: Enterobacter cloacae, ATCCBAA2468; read-out: MIC E. cloacae ATCC BAA-2468
Protocol: as §1, §2, §3, §4, §5, §6

| Structure (SMILES) | MIC [mg/L] |
| --- | --- |
| C#CC[C@H](NC(=O)c1ccc(NC(=O)c2ccc(C#N)cc2)cc1)C(=O)Nc1ccc(C(=O)Nc2ccc(-c3ccc(C(=O)O)cc3)c(O)c2OC(C)C)cc1 [Cmpd. 44] | > 64 |

test system: K. pneum. R-1525; test: MIC assay; assay type: cell-based; details: Klebsiella pneumoniae; read-out: MIC K. pneum. R-1525
Protocol: as §1, §2, §3, §4, §5, §6

| Structure (SMILES) | MIC [mg/L] |
| --- | --- |
| C#CC[C@H](NC(=O)c1ccc(NC(=O)c2ccc(C#N)cc2)cc1)C(=O)Nc1ccc(C(=O)Nc2ccc(-c3ccc(C(=O)O)cc3)c(O)c2OC(C)C)cc1 [Cmpd. 44] | > 64 |

test system: E. coli ATCC-25922; test: MIC assay; assay type: cell-based; details: Escherichia coli, ATCC25922; reference strain; read-out: MIC E. coli ATCC-25922
Protocol: as §1, §2, §3, §4, §5, §6

| Structure (SMILES) | MIC [mg/L] |
| --- | --- |
| C#CC[C@H](NC(=O)c1ccc(NC(=O)c2ccc(C#N)cc2)cc1)C(=O)Nc1ccc(C(=O)Nc2ccc(-c3ccc(C(=O)O)cc3)c(O)c2OC(C)C)cc1 [Cmpd. 44] | > 64 |

test system: A. baum. R835; test: MIC assay; assay type: cell-based; details: Acinetobacter baumannii; read-out: MIC A. baum. R835
Protocol: as §1, §2, §3, §4, §5, §6

| Structure (SMILES) | MIC [mg/L] |
| --- | --- |
| C#CC[C@H](NC(=O)c1ccc(NC(=O)c2ccc(C#N)cc2)cc1)C(=O)Nc1ccc(C(=O)Nc2ccc(-c3ccc(C(=O)O)cc3)c(O)c2OC(C)C)cc1 [Cmpd. 44] | > 64 |

test system: E. coli LM705; test: MIC assay; assay type: cell-based; details: Escherichia coli, LM705, read-out: MIC E. coli LM705
Protocol: as §1, §2, §3, §4, §5, §6

| Structure (SMILES) | MIC [mg/L] |
| --- | --- |
| C#CC[C@H](NC(=O)c1ccc(NC(=O)c2ccc(C#N)cc2)cc1)C(=O)Nc1ccc(C(=O)Nc2ccc(-c3ccc(C(=O)O)cc3)c(O)c2OC(C)C)cc1 [Cmpd. 44] | > 64 |

test system: A. baum. ATCC BAA-1710; test: MIC assay; assay type: cell-based; details: Acinetobacter baumannii, ATCCBAA1710; read-out: MIC A. baum. ATCC BAA-1710
Protocol: as §1, §2, §3, §4, §5, §6

| Structure (SMILES) | MIC [mg/L] |
| --- | --- |
| C#CC[C@H](NC(=O)c1ccc(NC(=O)c2ccc(C#N)cc2)cc1)C(=O)Nc1ccc(C(=O)Nc2ccc(-c3ccc(C(=O)O)cc3)c(O)c2OC(C)C)cc1 [Cmpd. 44] | > 64 |

test system: A. baum. CIP-107292; test: MIC assay; assay type: cell-based; details: Acinetobacter baumannii, CIP107292; read-out: MIC A. baum. CIP-107292
Protocol: as §1, §2, §3, §4, §5, §6

| Structure (SMILES) | MIC [mg/L] |
| --- | --- |
| C#CC[C@H](NC(=O)c1ccc(NC(=O)c2ccc(C#N)cc2)cc1)C(=O)Nc1ccc(C(=O)Nc2ccc(-c3ccc(C(=O)O)cc3)c(O)c2OC(C)C)cc1 [Cmpd. 44] | > 64 |

test system: P. ae. PA14; test: MIC assay; assay type: cell-based; details: Pseudomonas aeruginosa, PA14; reference strain; read-out: MIC P. ae. PA14
Protocol: as §1, §2, §3, §4, §5, §6

| Structure (SMILES) | MIC [mg/L] |
| --- | --- |
| C#CC[C@H](NC(=O)c1ccc(NC(=O)c2ccc(C#N)cc2)cc1)C(=O)Nc1ccc(C(=O)Nc2ccc(-c3ccc(C(=O)O)cc3)c(O)c2OC(C)C)cc1 [Cmpd. 44] | > 64 |

test system: A. baum. CIP-105742; test: MIC assay; assay type: cell-based; details: Acinetobacter baumannii, CIP105742; read-out: MIC A. baum. CIP-105742
Protocol: as §1, §2, §3, §4, §5, §6

| Structure (SMILES) | MIC [mg/L] |
| --- | --- |
| C#CC[C@H](NC(=O)c1ccc(NC(=O)c2ccc(C#N)cc2)cc1)C(=O)Nc1ccc(C(=O)Nc2ccc(-c3ccc(C(=O)O)cc3)c(O)c2OC(C)C)cc1 [Cmpd. 44] | > 64 |

test system: P. ae. PA14ΔmexAB; test: MIC assay; assay type: cell-based; details: Pseudomonas aeruginosa, read-out: MIC P. ae. PA14ΔmexAB
Protocol: as §1, §2, §3, §4, §5, §6

| Structure (SMILES) | MIC [mg/L] |
| --- | --- |
| C#CC[C@H](NC(=O)c1ccc(NC(=O)c2ccc(C#N)cc2)cc1)C(=O)Nc1ccc(C(=O)Nc2ccc(-c3ccc(C(=O)O)cc3)c(O)c2OC(C)C)cc1 [Cmpd. 44] | > 64 |

test system: K. pneum. CIP-104298; test: MIC assay; assay type: cell-based; details: Klebsiella pneumoniae, CIP104298; reference strain; read-out: MIC K. pneum. CIP-104298
Protocol: as §1, §2, §3, §4, §5, §6

| Structure (SMILES) | MIC [mg/L] |
| --- | --- |
| C#CC[C@H](NC(=O)c1ccc(NC(=O)c2ccc(C#N)cc2)cc1)C(=O)Nc1ccc(C(=O)Nc2ccc(-c3ccc(C(=O)O)cc3)c(O)c2OC(C)C)cc1 [Cmpd. 44] | > 64 |

test system: E. faec. DSM-17050 (VRE); test: MIC assay; assay type: cell-based, Enterococcus faecium; details: Enterococcus; read-out: MIC E. faec. DSM-17050 (VRE)
Protocol: as §1, §2, §3, §4, §5, §6

| Structure (SMILES) | MIC [mg/L] |
| --- | --- |
| C#CC[C@H](NC(=O)c1ccc(NC(=O)c2ccc(C#N)cc2)cc1)C(=O)Nc1ccc(C(=O)Nc2ccc(-c3ccc(C(=O)O)cc3)c(O)c2OC(C)C)cc1 [Cmpd. 44] | < 0.03 |

test system: E. ae. CIP 106754; test: MIC assay; assay type: cell-based, Enterobacter aerogenes; details: Klebsiella aerogenes, CIP106754, read-out: MIC E. ae. CIP 106754
Protocol: as §1, §2, §3, §4, §5, §6

| Structure (SMILES) | MIC [mg/L] |
| --- | --- |
| C#CC[C@H](NC(=O)c1ccc(NC(=O)c2ccc(C#N)cc2)cc1)C(=O)Nc1ccc(C(=O)Nc2ccc(-c3ccc(C(=O)O)cc3)c(O)c2OC(C)C)cc1 [Cmpd. 44] | > 64 |
